US10913744B2, “LRRK2 inhibitors and methods of making and using the same” (Dana-Farber Cancer Institute, Inc., priority 2015, dated 2021)
Like-named read-outs stand apart in the source and are kept apart here.

Assays:
JAK2 = JAK2 (Homo sapiens (Human), UniProt O60674); assay: Dundee profiling
[1] = target: EGFR (L747-S752del, P753S) (Homo sapiens (Human), UniProt P00533, DEL747-752/P753S); assay: KinomeScan; assay type: binding; details: 1 uM
DYRK2 = DYRK2 (Homo sapiens (Human), UniProt Q92630); assay: Dundee profiling
Sequence of DYRK2 (Q92630 whole entry, looked up, species assumed): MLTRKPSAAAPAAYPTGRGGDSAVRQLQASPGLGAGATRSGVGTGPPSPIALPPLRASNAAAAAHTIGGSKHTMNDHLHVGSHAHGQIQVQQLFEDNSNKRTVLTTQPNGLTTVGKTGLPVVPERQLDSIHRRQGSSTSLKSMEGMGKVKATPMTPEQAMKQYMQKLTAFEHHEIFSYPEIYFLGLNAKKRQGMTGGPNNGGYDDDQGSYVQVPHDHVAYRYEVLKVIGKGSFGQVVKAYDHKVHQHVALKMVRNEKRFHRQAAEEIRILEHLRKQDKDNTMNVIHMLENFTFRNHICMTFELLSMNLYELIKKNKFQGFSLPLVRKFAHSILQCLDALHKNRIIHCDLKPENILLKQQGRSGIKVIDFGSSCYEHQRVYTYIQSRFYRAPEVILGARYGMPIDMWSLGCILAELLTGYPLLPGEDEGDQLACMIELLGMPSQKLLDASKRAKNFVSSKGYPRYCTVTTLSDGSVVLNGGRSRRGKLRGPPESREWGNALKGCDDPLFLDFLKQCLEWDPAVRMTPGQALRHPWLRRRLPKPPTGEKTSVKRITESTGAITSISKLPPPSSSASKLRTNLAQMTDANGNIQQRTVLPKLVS

SmMLCK = SmMLCK (Homo sapiens (Human), UniProt Q15746); assay: Dundee profiling
TSSK1 = TSSK1 (Homo sapiens (Human), UniProt Q9BXA7); assay: Dundee profiling
Sequence of TSSK1 (Q9BXA7 whole entry, species assumed): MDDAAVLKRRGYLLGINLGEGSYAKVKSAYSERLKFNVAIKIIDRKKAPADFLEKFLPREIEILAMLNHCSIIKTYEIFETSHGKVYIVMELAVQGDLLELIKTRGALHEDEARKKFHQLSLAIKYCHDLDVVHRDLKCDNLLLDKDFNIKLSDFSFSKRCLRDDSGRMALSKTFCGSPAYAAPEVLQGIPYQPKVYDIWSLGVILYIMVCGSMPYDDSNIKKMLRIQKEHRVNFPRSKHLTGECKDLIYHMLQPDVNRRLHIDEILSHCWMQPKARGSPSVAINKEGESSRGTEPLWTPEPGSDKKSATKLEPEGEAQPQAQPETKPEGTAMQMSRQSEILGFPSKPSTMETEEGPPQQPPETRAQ

IKKe = IKKe (Homo sapiens (Human), UniProt Q14164); assay: Dundee profiling
PLK1 = PLK1 (Homo sapiens (Human), UniProt P53350); assay: Dundee profiling
BRSK2 = BRSK2 (Homo sapiens (Human), UniProt Q8IWQ3); assay: Dundee profiling
MET (M1250T) = MET (M1250T) (Homo sapiens (Human), UniProt P08581, M1250T); assay: KinomeScan; assay type: binding; details: 1 uM
IGF-1R = IGF-1R (Homo sapiens (Human), UniProt P08069); assay: Dundee profiling
Sequence of IGF-1R (P08069 31-1367, species assumed): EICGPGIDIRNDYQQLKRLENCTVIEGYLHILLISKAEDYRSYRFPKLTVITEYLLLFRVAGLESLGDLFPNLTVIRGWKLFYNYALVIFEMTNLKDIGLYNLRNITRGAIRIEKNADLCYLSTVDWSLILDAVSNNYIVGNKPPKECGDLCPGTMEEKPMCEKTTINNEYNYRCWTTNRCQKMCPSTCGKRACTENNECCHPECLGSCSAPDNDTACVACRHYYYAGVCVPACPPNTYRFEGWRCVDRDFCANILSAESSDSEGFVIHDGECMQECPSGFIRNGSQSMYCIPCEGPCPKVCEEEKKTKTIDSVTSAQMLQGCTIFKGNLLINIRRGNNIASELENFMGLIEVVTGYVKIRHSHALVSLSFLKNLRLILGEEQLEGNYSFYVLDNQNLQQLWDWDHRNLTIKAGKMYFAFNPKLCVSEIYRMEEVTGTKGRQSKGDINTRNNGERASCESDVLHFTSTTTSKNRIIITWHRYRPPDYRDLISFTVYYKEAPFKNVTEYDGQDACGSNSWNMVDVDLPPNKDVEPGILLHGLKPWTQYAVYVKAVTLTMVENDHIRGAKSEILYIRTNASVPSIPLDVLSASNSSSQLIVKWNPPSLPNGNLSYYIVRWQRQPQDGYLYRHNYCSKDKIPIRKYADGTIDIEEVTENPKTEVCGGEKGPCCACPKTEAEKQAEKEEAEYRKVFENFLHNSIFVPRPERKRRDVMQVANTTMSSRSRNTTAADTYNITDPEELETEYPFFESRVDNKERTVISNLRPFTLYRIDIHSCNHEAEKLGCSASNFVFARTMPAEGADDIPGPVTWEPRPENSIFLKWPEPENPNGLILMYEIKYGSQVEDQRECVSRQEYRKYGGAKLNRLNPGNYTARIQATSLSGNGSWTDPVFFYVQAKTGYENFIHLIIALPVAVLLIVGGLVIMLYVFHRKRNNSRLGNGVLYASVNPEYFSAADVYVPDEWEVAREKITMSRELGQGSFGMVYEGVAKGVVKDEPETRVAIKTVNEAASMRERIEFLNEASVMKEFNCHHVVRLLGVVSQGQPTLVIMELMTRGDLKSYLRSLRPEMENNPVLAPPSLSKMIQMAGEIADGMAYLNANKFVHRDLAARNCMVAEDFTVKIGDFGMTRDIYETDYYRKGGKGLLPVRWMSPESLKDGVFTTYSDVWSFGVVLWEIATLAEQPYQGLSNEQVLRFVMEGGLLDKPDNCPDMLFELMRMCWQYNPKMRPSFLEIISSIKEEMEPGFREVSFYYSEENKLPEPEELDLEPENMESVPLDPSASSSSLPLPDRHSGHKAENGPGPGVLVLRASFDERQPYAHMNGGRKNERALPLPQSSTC

PAK4 = PAK4 (Homo sapiens (Human), UniProt O96013); assay: Dundee profiling
TESK1 = TESK1 (Homo sapiens (Human), UniProt Q15569); assay: Dundee profiling
Sequence of TESK1 (Q15569 whole entry, looked up, species assumed): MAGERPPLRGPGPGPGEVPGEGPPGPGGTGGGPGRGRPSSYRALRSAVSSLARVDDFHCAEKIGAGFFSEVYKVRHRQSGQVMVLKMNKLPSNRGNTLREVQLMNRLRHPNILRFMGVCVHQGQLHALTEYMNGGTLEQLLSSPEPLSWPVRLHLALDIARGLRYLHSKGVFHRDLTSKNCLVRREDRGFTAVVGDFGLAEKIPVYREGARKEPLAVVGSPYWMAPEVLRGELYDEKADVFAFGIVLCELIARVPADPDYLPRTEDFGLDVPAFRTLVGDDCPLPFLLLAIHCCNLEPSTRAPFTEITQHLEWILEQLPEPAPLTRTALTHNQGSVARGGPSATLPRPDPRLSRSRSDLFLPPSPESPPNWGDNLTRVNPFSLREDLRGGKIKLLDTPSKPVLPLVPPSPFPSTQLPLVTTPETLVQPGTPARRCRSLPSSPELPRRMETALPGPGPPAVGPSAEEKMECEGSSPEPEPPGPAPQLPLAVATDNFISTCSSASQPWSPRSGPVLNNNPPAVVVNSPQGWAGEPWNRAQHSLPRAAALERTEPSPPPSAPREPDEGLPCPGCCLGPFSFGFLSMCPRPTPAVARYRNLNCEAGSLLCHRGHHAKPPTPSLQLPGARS

wild-type GFP-LRRK2 = wild-type GFP-LRRK2 (Homo sapiens (Human), UniProt Q5S007); assay: Ser910/Ser935 phosphorylation immunoblot in HEK293 cells; assay type: cell-based; details: 90 min
Method: (§1) FIG. 2A-2D show inhibition of LRRK2 by Compound 18. HEK293 cells stably expressing FIG. 2A: wild-type GFP-LRRK2, FIG. 2B: GFP-LRRK2[G2019S], FIG. 2C: GFP-LRRK2[G2019S+A2016T], and FIG. 2D: GFP-LRRK2[A2016T] were treated with dimethylsulfoxide (DMSO) or increasing concentrations of Compound 18 for 90 min (1 μM of LRRK2-IN-1 was used as a control). Cell lysates were subjected to immunoblotting for detection of LRRK2 phosphorylated at Ser910 and Ser935 and for total LRRK2.
(§2) HEK293 and Swiss 3T3 cells were cultured in DMEM (Dulbecco's Modified Eagle's medium) supplemented with 10% FBS (fetal bovine serum), 2 mM glutamine and 1× penicillin/streptomycin solution. HEK-293 T-Rex cell lines were cultured in DMEM supplemented with 10% (v/v) FBS and 2 mM glutamine, lx penicillin/streptomycin solution, 15 μg/ml blastocidin and 100 μg/ml hygromycin. T-Rex cultures were induced to express the indicated protein by inclusion of 0.1 μg/ml doxycycline in the culture medium for 24-48 hr. […] Protein concentrations were determined following centrifugation of the lysate at 16,000×g at 4° C. for 20 minutes using the Bradford method with BSA as the standard. […]
(§3) As there are no validated direct phosphorylation substrates of LRRK2, phosphorylation of Ser910 and Ser935, two residues whose phosphorylation is known to be dependent upon LRRK2 kinase activity, was monitored.

GFP-LRRK2[G2019S] = GFP-LRRK2[G2019S] (Homo sapiens (Human), UniProt Q5S007, G2019S); assay: as above; assay type: cell-based; details: 90 min
Method: as §1, §2, §3

HIPK2 = HIPK2 (Homo sapiens (Human), UniProt Q9H2X6); assay: Dundee profiling
EPH-B4 = EPH-B4 (Homo sapiens (Human), UniProt P54760); assay: Dundee profiling
Sequence of EPH-B4 (P54760 16-987, species assumed): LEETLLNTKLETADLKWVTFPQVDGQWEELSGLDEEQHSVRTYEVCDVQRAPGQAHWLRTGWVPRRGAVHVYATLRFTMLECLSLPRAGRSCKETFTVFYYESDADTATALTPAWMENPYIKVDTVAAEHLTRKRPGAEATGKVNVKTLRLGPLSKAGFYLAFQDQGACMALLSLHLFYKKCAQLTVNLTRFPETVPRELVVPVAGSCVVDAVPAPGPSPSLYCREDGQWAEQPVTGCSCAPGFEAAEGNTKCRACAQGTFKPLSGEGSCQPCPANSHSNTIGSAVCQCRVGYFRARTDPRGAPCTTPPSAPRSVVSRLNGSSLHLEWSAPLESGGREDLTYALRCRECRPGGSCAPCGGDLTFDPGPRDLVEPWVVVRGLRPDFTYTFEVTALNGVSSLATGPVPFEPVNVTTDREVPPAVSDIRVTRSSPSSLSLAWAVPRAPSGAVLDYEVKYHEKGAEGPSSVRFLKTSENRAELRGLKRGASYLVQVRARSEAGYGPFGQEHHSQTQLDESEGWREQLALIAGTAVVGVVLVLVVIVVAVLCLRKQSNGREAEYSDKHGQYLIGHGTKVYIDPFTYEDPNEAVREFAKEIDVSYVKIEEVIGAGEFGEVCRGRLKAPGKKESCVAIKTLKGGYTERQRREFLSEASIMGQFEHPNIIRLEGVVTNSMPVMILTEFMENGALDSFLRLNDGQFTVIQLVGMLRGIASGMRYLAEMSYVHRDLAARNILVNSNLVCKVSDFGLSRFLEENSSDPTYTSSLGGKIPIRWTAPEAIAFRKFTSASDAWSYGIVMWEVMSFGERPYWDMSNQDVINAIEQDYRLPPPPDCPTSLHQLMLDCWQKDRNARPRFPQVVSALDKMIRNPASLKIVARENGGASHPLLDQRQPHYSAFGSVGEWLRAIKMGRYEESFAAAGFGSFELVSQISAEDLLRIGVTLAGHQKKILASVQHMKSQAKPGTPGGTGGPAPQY

MKK7 = MKK7 (Homo sapiens (Human), UniProt O14733); assay: KinomeScan; assay type: binding; details: 1 uM
EF2K = EF2K (Homo sapiens (Human), UniProt O00418); assay: Dundee profiling
[2] = read-out: percent remaining enzymatic activity, I1, 1 μM
[3] = read-out: percent remaining enzymatic activity, I10

Sequence of JAK2 (O60674 whole entry, species assumed): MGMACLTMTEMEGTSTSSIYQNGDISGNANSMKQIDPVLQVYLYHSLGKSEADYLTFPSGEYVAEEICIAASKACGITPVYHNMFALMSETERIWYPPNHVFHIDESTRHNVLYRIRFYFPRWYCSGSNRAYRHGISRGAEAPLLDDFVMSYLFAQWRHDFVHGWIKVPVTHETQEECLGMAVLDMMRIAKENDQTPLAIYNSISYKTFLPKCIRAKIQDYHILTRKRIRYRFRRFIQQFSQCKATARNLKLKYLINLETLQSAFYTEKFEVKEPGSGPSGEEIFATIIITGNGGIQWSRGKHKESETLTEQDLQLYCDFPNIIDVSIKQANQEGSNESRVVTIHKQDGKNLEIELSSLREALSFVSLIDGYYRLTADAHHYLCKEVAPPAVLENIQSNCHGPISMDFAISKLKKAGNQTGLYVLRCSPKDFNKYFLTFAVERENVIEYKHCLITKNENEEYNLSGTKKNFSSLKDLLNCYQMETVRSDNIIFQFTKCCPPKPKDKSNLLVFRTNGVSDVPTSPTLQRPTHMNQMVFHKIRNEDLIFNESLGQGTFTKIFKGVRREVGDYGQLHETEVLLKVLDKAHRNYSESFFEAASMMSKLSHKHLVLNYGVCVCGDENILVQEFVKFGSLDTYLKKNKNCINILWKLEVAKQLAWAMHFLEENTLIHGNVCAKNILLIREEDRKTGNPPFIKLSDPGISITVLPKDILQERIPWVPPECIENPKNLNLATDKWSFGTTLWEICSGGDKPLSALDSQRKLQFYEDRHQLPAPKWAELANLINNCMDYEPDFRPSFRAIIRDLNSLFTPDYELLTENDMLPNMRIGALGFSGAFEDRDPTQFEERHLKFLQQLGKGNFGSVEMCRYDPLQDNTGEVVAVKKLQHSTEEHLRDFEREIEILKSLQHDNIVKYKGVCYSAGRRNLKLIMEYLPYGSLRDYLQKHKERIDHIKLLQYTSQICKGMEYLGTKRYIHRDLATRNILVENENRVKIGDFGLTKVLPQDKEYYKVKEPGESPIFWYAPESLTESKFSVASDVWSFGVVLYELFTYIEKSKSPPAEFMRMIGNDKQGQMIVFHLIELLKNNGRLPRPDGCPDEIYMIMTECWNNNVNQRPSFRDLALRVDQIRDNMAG

CNc1nc(Nc2ccc(C(=O)N3CCOCC3)cc2OC)nc2[nH]cc(Cl)c12 [Compound 18, (4-((5-chloro-4-(methylamino)-7H-pyrrolo[2,3-d]pyrimidin-2-yl)amino)-3-methoxyphenyl)(morpholino)methanone]
percent remaining enzymatic activity (JAK2; I10): 97% | remaining activity at 1 µM (JAK2; read-out: percent remaining enzymatic activity): 99% | KinomeScan value [1]: 94 | remaining activity at 1 µM (DYRK2; [2]): 67% | remaining activity at 1 µM (DYRK2; [3]): 18% | IC50 (SmMLCK): 81.3 nM | inhibition at 1 µM (SmMLCK; read-out: inhibition of kinase activity of the DMSO control): > 90% | remaining activity at 1 µM (SmMLCK; [2]): 9% | remaining activity at 1 µM (SmMLCK; [3]): 1% | remaining activity at 1 µM (TSSK1; [2]): 14% | remaining activity at 1 µM (TSSK1; [3]): 7% | remaining activity at 1 µM (IKKe; [2]): 114% | remaining activity at 1 µM (IKKe; [3]): 98% | remaining activity at 1 µM (PLK1; [2]): 62% | remaining activity at 1 µM (PLK1; [3]): 13% | remaining activity at 1 µM (BRSK2; [2]): 110% | remaining activity at 1 µM (BRSK2; [3]): 98% | KinomeScan value (MET (M1250T)): 80 | remaining activity at 1 µM (IGF-1R; [2]): 13% | remaining activity at 1 µM (IGF-1R; [3]): 9% | remaining activity at 1 µM (PAK4; [2]): 102% | remaining activity at 1 µM (PAK4; [3]): 92% | remaining activity at 1 µM (TESK1; [2]): 97% | remaining activity at 1 µM (TESK1; [3]): 95% | concentration giving substantial dephosphorylation of Ser910 and Ser935 (wild-type GFP-LRRK2): approximately 0.3 | concentration giving substantial dephosphorylation of Ser910 and Ser935 (GFP-LRRK2[G2019S]): approximately 0.3 | remaining activity at 1 µM (HIPK2; [2]): 84% | remaining activity at 1 µM (HIPK2; [3]): 43% | remaining activity at 1 µM (EPH-B4; [2]): 80% | remaining activity at 1 µM (EPH-B4; [3]): 86% | KinomeScan value (MKK7): 100 | remaining activity at 1 µM (EF2K; [2]): 105% | remaining activity at 1 µM (EF2K; [3]): 102%
